For this series, the system named is CCRIS mutagenicity, Ames/micronucleus/aberration tests. The experiment in a line: CCRIS mutagenicity studies.
The mark [1] stands for this setting: Test System: AMES SALMONELLA TYPHIMURIUM, Strain/Indicator: TA98, Metabolic Activation: NONE, Method: PREINCUBATION
[2] abbreviates: Test System: AMES SALMONELLA TYPHIMURIUM, Strain/Indicator: TA98, Metabolic Activation: NONE, Method: STANDARD PLATE.
[3] abbreviates: Test System: AMES SALMONELLA TYPHIMURIUM, Strain/Indicator: TA98, Metabolic Activation: RAT, LIVER, S-9, AROCLOR 1254, Method: STANDARD PLATE.
[4] abbreviates: Test System: AMES SALMONELLA TYPHIMURIUM, Strain/Indicator: TA1535, Metabolic Activation: NONE, Method: PREINCUBATION
[5] abbreviates: Test System: AMES SALMONELLA TYPHIMURIUM, Strain/Indicator: TA1537, Metabolic Activation: NONE, Method: PREINCUBATION
Setting [6] is: Test System: AMES SALMONELLA TYPHIMURIUM, Strain/Indicator: TA1538, Metabolic Activation: NONE, Method: PREINCUBATION
The mark [7] stands for this setting: Test System: AMES SALMONELLA TYPHIMURIUM, Strain/Indicator: TA100, Metabolic Activation: NONE, Method: PREINCUBATION

Calls of active or inactive are those of the source. The rule behind the calls is not given here.

In the case of `c1ccc2cc3ccccc3cc2c1`, the mutagenic call by setting is: (End Point: In vitro chromosomal aberrations, Test System: Chinese hamster lung (CHL/IU) cells, Metabolic Activation: Rat, Liver, S9, Phenobarbital and 5,6-benzoflavone) “active; positive (structural changes and ploidy). weak response for ploidy”; (Test System: AMES SALMONELLA TYPHIMURIUM, Strain/Indicator: TA97, Metabolic Activation: NONE, Method: STANDARD PLATE) “inactive; negative”; (Test System: AMES SALMONELLA TYPHIMURIUM, Strain/Indicator: TA97, Metabolic Activation: RAT, LIVER, S-9, PCB, Method: STANDARD PLATE) “active; positive”; under setting [1], “inactive; negative”; under setting [2], “inactive; negative”; (Test System: AMES SALMONELLA TYPHIMURIUM, Strain/Indicator: TA98, Metabolic Activation: RAT LIVER S-9, PHENOBARBITAL AND BETA-NAPHTHOFLAVONE, Method: PREINCUBATION) “inactive; negative”. The mutagenic call is “inactive; negative” under setting [3]; “inactive; negative” (Test System: AMES SALMONELLA TYPHIMURIUM, Strain/Indicator: TA98, Metabolic Activation: RAT, LIVER, S-9, PCB, Method: STANDARD PLATE); “inactive; negative” (Test System: AMES SALMONELLA TYPHIMURIUM, Strain/Indicator: TA100, Metabolic Activation: NONE, Method: STANDARD PLATE); “inactive; negative” (Test System: AMES SALMONELLA TYPHIMURIUM, Strain/Indicator: TA100, Metabolic Activation: RAT LIVER S-9, PHENOBARBITAL AND BETA-NAPHTHOFLAVONE, Method: PREINCUBATION); “inactive; negative” (Test System: AMES SALMONELLA TYPHIMURIUM, Strain/Indicator: TA100, Metabolic Activation: RAT, LIVER, S-9, AROCLOR 1254, Method: STANDARD PLATE); “inactive; negative” (Test System: AMES SALMONELLA TYPHIMURIUM, Strain/Indicator: TA100, Metabolic Activation: RAT, LIVER, S-9, PCB, Method: STANDARD PLATE). Further, the mutagenic call was “inactive; negative” under setting [4]; “inactive; negative” (Test System: AMES SALMONELLA TYPHIMURIUM, Strain/Indicator: TA1535, Metabolic Activation: RAT LIVER S-9, PHENOBARBITAL AND BETA-NAPHTHOFLAVONE, Method: PREINCUBATION); “inactive; negative” under setting [5]; “inactive; negative” (Test System: AMES SALMONELLA TYPHIMURIUM, Strain/Indicator: TA1537, Metabolic Activation: RAT LIVER S-9, PHENOBARBITAL AND BETA-NAPHTHOFLAVONE, Method: PREINCUBATION); “inactive; negative” under setting [6]; “inactive; negative” (Test System: AMES SALMONELLA TYPHIMURIUM, Strain/Indicator: TA1538, Metabolic Activation: RAT LIVER S-9, PHENOBARBITAL AND BETA-NAPHTHOFLAVONE, Method: PREINCUBATION). For the same compound, the mutagenic call reads like this: (Test System: E. COLI, Strain/Indicator: WP2 UVRA, Metabolic Activation: HAMSTER, LIVER, S-9, AROCLOR 1254, Method: STANDARD PLATE) “inactive; negative”; (Test System: E. COLI, Strain/Indicator: WP2 UVRA, Metabolic Activation: HAMSTER, LIVER, S-9, Method: STANDARD PLATE) “inactive; negative”; (Test System: E. COLI, Strain/Indicator: WP2 UVRA, Metabolic Activation: MOUSE, LIVER, S-9, AROCLOR 1254, Method: STANDARD PLATE) “inactive; negative”; (Test System: E. COLI, Strain/Indicator: WP2 UVRA, Metabolic Activation: MOUSE, LIVER, S-9, Method: STANDARD PLATE) “inactive; negative”; (Test System: E. COLI, Strain/Indicator: WP2 UVRA, Metabolic Activation: NONE, Method: STANDARD PLATE) “inactive; negative”; (Test System: E. COLI, Strain/Indicator: WP2 UVRA, Metabolic Activation: RAT, LIVER, S-9, AROCLOR 1254, Method: STANDARD PLATE) “inactive; negative”. Further, the mutagenic call is “inactive; negative” (Test System: E. COLI, Strain/Indicator: WP2 UVRA, Metabolic Activation: RAT, LIVER, S-9, Method: STANDARD PLATE); “inactive; negative” (Test System: E.COLI, Strain/Indicator: WP2UVRA, Metabolic Activation: NONE, Method: PREINCUBATION); “inactive; negative” (Test System: E.COLI, Strain/Indicator: WP2UVRA, Metabolic Activation: RAT LIVER S-9, PHENOBARBITAL AND BETA-NAPHTHOFLAVONE, Method: PREINCUBATION); “inactive; negative” (Test System: MOUSE LYMPHOMA, Strain/Indicator: L5178Y (TK+/TK-), Metabolic Activation: NONE, Method: SUSPENSION/PLATE); “active; positive” (Test System: MOUSE LYMPHOMA, Strain/Indicator: L5178Y (TK+/TK-), Metabolic Activation: RAT, LIVER, S-9, AROCLOR 1254, Method: SUSPENSION/PLATE); “active; positive” (Test System: MOUSE LYMPHOMA, Strain/Indicator: L5178Y (TK+/TK-), Metabolic Activation: RAT, LIVER, S-9, Method: SUSPENSION/PLATE).
As for `Cc1n[nH]c(=O)[nH]c1=O`, the mutagenic call runs as follows: (Test System: AMES SALMONELLA TYPHIMURIUM, Strain/Indicator: TA98, Metabolic Activation: MAIZE SEEDLING, S-14, Method: PREINCUBATION) “inactive; negative”; (Test System: AMES SALMONELLA TYPHIMURIUM, Strain/Indicator: TA98, Metabolic Activation: MOUSE, LIVER, S-9, Method: PREINCUBATION) “inactive; negative”; under setting [1], “inactive; negative”; (Test System: AMES SALMONELLA TYPHIMURIUM, Strain/Indicator: TA100, Metabolic Activation: MAIZE SEEDLING, S-14, Method: PREINCUBATION) “inactive; negative”; (Test System: AMES SALMONELLA TYPHIMURIUM, Strain/Indicator: TA100, Metabolic Activation: MOUSE, LIVER, S-9, Method: PREINCUBATION) “inactive; negative”; under setting [7], “inactive; negative”. Moreover, the mutagenic call under setting [4] was “inactive; negative”, the mutagenic call under setting [5] was “inactive; negative” and the mutagenic call under setting [6] was “inactive; negative”.
As for `CCOP(=S)(OCC)Oc1nc(Cl)c(Cl)cc1Cl`, the mutagenic call reads like this: (End Point: In vitro chromosomal aberrations, Test System: Human lymphocytes, Metabolic Activation: None) “active; positive (structural changes and ploidy)”; under setting [1], “inactive; negative”; (Test System: AMES SALMONELLA TYPHIMURIUM, Strain/Indicator: TA98, Metabolic Activation: RAT, LIVER, S-9, AROCLOR 1254, Method: PREINCUBATION) “inactive; negative”; under setting [7], “inactive; negative”; (Test System: AMES SALMONELLA TYPHIMURIUM, Strain/Indicator: TA100, Metabolic Activation: RAT, LIVER, S-9, AROCLOR 1254, Method: PREINCUBATION) “inactive; negative”; under setting [4], “inactive; negative”. In addition, the mutagenic call runs as follows: (Test System: AMES SALMONELLA TYPHIMURIUM, Strain/Indicator: TA1535, Metabolic Activation: RAT, LIVER, S-9, AROCLOR 1254, Method: PREINCUBATION) “inactive; negative”; under setting [5], “inactive; negative”; (Test System: AMES SALMONELLA TYPHIMURIUM, Strain/Indicator: TA1537, Metabolic Activation: RAT, LIVER, S-9, AROCLOR 1254, Method: PREINCUBATION) “inactive; negative”; under setting [6], “inactive; negative”; (Test System: AMES SALMONELLA TYPHIMURIUM, Strain/Indicator: TA1538, Metabolic Activation: RAT, LIVER, S-9, AROCLOR 1254, Method: PREINCUBATION) “inactive; negative”; (Test System: CHINESE HAMSTER OVARY, Strain/Indicator: CHO-K1-BH4 (HGPRT)/6-THIOGUANINE, Metabolic Activation: NONE) “inactive; negative”. Besides, the mutagenic call was “inactive; negative” (Test System: CHINESE HAMSTER OVARY, Strain/Indicator: CHO-K1-BH4 (HGPRT)/6-THIOGUANINE, Metabolic Activation: RAT, LIVER , S-9, AROCLOR 1254) and “inactive; negative” (Test System: UDS RAT PRIMARY HEPATOCYTES, Strain/Indicator: THY INCORP, Metabolic Activation: NONE, Method: AUTORADIOGRAPHY).
For the compound `CC(=O)N(OC(=O)c1ccccc1)c1ccc2c(c1)Cc1ccccc1-2`, the mutagenic call was “active; positive” under setting [2] and “active; positive” under setting [3].
For `C[C@@]12CCc3occc3[C@H]1CC[C@@]13C[C@@H](CC[C@H]12)[C@@](O)(CO)C3`, the mutagenic call is “inactive; negative” (Test System: AMES SALMONELLA TYPHIMURIUM, Strain/Indicator: TM677, Metabolic Activation: NONE, Method: PREINCUBATION) and “inactive; negative” (Test System: AMES SALMONELLA TYPHIMURIUM, Strain/Indicator: TM677, Metabolic Activation: RAT, LIVER, S-9, AROCLOR 1254, Method: PREINCUBATION).

The values are drawn from PubChem BioAssay AID1259407 (Chemical Carcinogenesis Research Information System (CCRIS), 2018).
